No end group written: not given here.

The test system of data set [1] is human microvascular endothelial cells (HMVECs). Briefly: VEGF-induced migration of HMVECs, modified Boyden chamber. It is filed as cell-based. Here is the method: Endostatin peptides were tested for anti-endothelial cell migration activity. Inhibition of VEGF-induced migration of human microvascular endothelial cells (HMVECs) was determined using several doses of endostatin peptides (FIG. 5). Human peptides were used because the cells were of human origin and the migration response of the HMVECs was assayed using a modified Boyden chamber. VEGF (5 ng/ml) was used a chemotactic agent and cells were challenged with human endostatin (Entremed; EM-ES), human Fc-Endostatin (nFcES), human P1 (hP1), human P2 (hP2), human P6 (hP6), and human P1-H1/3A (hP1-H1/3A). Total migration per membrane was quantified from the capture images using Scion Image Software (National Institutes of Health) and the unpaired Student T test was used for statistical analysis. […] No significant differences in inhibition between these concentrations were observed. At higher and lower concentrations less or no inhibition was observed. At 500 ng/ml of hP1 no inhibition was observed. Thus, similar to full-length endostatin, there is a U-shaped response to hP1 inhibition of EC migration.
The motility response of HMVEC-d cells was assayed using a modified Boyden chamber. Cells were plated in T75-cm2 flasks at 0.5×10^6 cells per flask and allowed to grow for 48 h (˜70% confluent) prior to the migration assay. To facilitate cell adhesion, the upper membrane of a transwell ([…]; Costar) was coated with fibronectin ([…]; Becton Dickinson, Bedford, Mass.) for 1 h at 37° C. Coated membranes were rinsed with PBS and allowed to air dry immediately before use. Cells were detached by trypsinization, treated with trypsinization neutralization solution (Clonetics), and resuspended at a final concentration of 1×10^6 cells/ml in serum-free endothelial basal medium (EBM; Clonetics) containing 0.1% BSA. Cells (200,000 in 0.2 ml) were then treated with 0.2 ml of EBM/BSA containing endostatin or peptides at the indicated concentrations. Cells were incubated for 20 min. at 37° C. with occasional shaking. Cells (50,000 in 100 μl) were added to the upper chamber of the transwell. EBM or EBM supplemented with VEGF (5 ng/ml) was added to the lower chamber and cells were allowed to migrate toward the bottom chamber for 4 h in a humidified incubator containing 5% CO2. Transwell filters were rinsed once with PBS and fixed and stained using a Diff-Quik staining kit (Baxter) following the manufacturer's protocol. Non-migrated cells were removed from the upper chamber with a cotton swab. Stained filters were cut out of the chamber and mounted onto slides using Permount (Fisher). The number of migrated cells was measured using microscopy (three fields from each membrane were captured using a 40× objective), and images were captured with a CCD camera using SPOT software. Total migration per membrane was quantified from the captured images using Scion Image software (National Institutes of Health). All experiments were run in triplicate. The unpaired Student t-test was used for statistical analysis.

For a further data set, the system named is female C57BL/6 mice. As to the kind of experiment: Estrus cycling by daily vaginal smears. It is filed as in vivo, mouse. The following applies: larger experiment, 2.5 mg/kg. The text has this: To investigate the effect of the angiogenesis inhibitors used above on estrus cycling, mice from the first two studies underwent daily vaginal smears in the middle of the endometriosis experiment. The stage of the estrus cycle was classified by evaluating the cells present at the cytological staining. Briefly, this was done as follows. In order to synchronize estrus cycling prior to surgery, mice were housed in groups of 5 for a week. After endometriosis surgery, with the intention to prevent the suspension of cycling, all mice were housed in individual cages. In the absence of a male, female mice housed in groups may become anestrus. Starting post surgical week two, estrus cycling was evaluated by cytological analysis of daily vaginal smears over one week's period. Exams were performed each day during the early morning hours. Autoclaved, wetted, blunt toothpicks were used to gently scrape the superficial cell layer of the animal's vagina. Cells were transferred to a drop of Evan's blue in 0.9% saline on a glass slide for staining, sealed under a glass cover slip and examined under a microscope (Carl Zeiss, Thornwood, N.Y.). Subsequently, each slide was analyzed under low magnification (×40 to ×100) by two independent investigators, who were masked for the form of treatment and previous data from every mouse.

The subject of a further data set is Female SCID mice. The following applies: mouse, in vivo.
The test system of a further data set is C57B1/6J mice. Briefly: Corpus luteum formation in ovaries. Type of data set: in vivo, mouse. The following applies: after 4 weeks of treatment, compared to control animals. An excerpt: The corpus luteum (CL) is the remnant of the graafian follicle after ovulation consisting mainly of connective tissue, granulosa and theca interna cells. The presence of Corpora lutea in an ovary is indicative of recent ovulation. We therefore examined the ovaries of mP-1 and vehicle treated mice for CL formation. After 4 weeks of treatment of C57B1/6J mice with induced endometriosis with mP-1, ovaries were removed, fixed in formalin and paraffin embedded. Ovaries from twelve, randomly chosen mice (three mice of both groups from the first two experiments) were sectioned (4-6 μm), and four consecutive sections were put on one slide. Every other slide was then stained with hematoxylin and eosin (H/E). The highest number of Corpora lutea per ovary on each slide was recorded, all numbers added and the mean number calculated.

Data set [2] concerns human pancreatic tumor cells BxPC-3. As to the kind of experiment: BxPC-3 human pancreatic tumor model in SCID mice. Type of data set: in vivo. The following applies: human endostatin peptides s.c. twice a day at 7 mg/kg/d, final measurement at 28 days, n=3. Here is the method:
These peptides were initially tested for anti-tumor activity employing the human pancreatic tumor cells BxPC-3 cells, which were implanted in the s.c. dorsa of SCID mice. For systemic treatment, human endostatin peptides, P1-P8, were administered subcutaneously (s.c.) twice a day at 7 mg/kg/d due to the high clearance rate from the mouse circulation. Full-length Fc-Endostatin, hFcES was administered subcutaneously only once per day at a dose of 20 mg/kg/d. PBS was used as a control.
(§1) BxPC-3 and LLC cells were grown in cell culture as described above. […] Mice were shaved and the dorsal skin was cleaned with ethanol before tumor cell injection. A suspension of 5×10^6 tumor cells in 0.1 ml RPMI-1640 (for BxPC-3) or DMEM (for LLC) was injected subcutaneously (s.c.) into the dorsa of mice at the proximal midline. BxPC-3 cells were implanted in SCID mice and LLC in C57B1/6J mice.
(§2) The mice were weighed and tumors were measured every 3-5 days in two diameters with a dial-caliper. Volumes were determined using the formula a2×b×0.52 (where a is the shortest and b is the longest diameter). Data is represented as volume of treated tumor over control (T/C). At the completion of each experiment, the mice were euthanized with CO2 asphyxiation. Tumors were fixed in 10% buffered Formalin (Fisher Scientific, Fair Lawn, N.J.) and paraffin-embedded.
(§3) For treatment of tumor-bearing mice, tumor volumes were allowed to grow to approximately 100 mm^3, and mice were randomized. Treatment was performed by single bolus s.c. injections. Peptides were administered twice a day (every 12 hrs). Doses indicated for peptides were corrected for the purity of peptides (approximately 70%). For example, mice injected with 4 mg/kg/d peptide, were actually injected with 2.8 mg/kg/d after correction. The unpaired Student t-test was used for statistical analysis.

The next data set has as its system LLC. As to the kind of experiment: Lewis lung carcinoma (LLC) tumor model in C57Bl/6J mice. Type of data set: in vivo, mouse. The following applies: for inhibited LLC (tumor inhibition): peptides s.c. twice a day at 2.8 mg/kg/d, C57B1/6J mice; for tumor volume: LLC, s.c. twice a day 2.8 mg/kg/day, n=5 (FIG. 7). As for the experimental part:
Control mice were treated with PBS. In these experiments, LLC cells were implanted into the s.c. dorsa of C57B1/6J mice, and systemically treated. Peptides (mP1, mP2, mP5, and mP6) were injected (s.c.) twice a day at a dose of 2.8 mg/kg/d, whereas endostatin and PBS were administered once a day at a dose of 20 mg/kg/d.
as §1
Animals with Lewis Lung carcinoma (600-800 mm^3 tumors) were euthanized, and the skin overlying the tumor was cleaned with Betadine and ethanol. Tumor tissue was excised under aseptic conditions. A suspension of tumor cells in 0.9% normal saline was made by passage of viable tumor tissue through a sieve and a series of sequentially smaller hypodermic needles of diameter 22- to 30-gauge. The final concentration was adjusted to 1×10^7 cells/ml, and the suspension was placed on ice. The injection of tumor cells was performed as described above.
as §2, §3

Data set [3] has as its system vessel density (CD31) of LLC tumors. As to the kind of experiment: Vessel density (CD31 staining) of LLC tumor sections. It is filed as in vivo, mouse. The following applies: peptides 2.8 mg/kg/d s.c. twice a day. As for the experimental part:
To determine the effect on angiogenesis after mP1 treatment, LLC tumors treated with mP1, mP2, and endostatin at equimolar concentration were analyzed for vessel density (CD31). […] In each case, peptides were administered twice a day s.c. and LLC tumor sections from day 13 were formalin-fixed paraffin-embedded and then stained with CD31 (PECAM). FIG. 2C show the determination of vessel density and the Y axis is expressed as %CD31/high power field (hpf).
Tumors were fixed in 10% buffered Formalin overnight at 4° C. The next day, tumors were washed three times in PBS and paraffin-embedded. Sections (5 μm) were permeabilized with 40 μg/ml proteinase K (Roche Diagnostics Corp.) in 0.2 M Tris-HCl buffer (pH 7.6) for 25 minutes at 37° C. and washed with PBS. PECAM (1:250) was incubated at 4° C. overnight. Stainings were amplified using tyramide signal amplification direct and indirect kits (NEN Life Science Products Inc., Boston, Mass.). Sections were photographed at 400× magnification using a NIKON TE300 microscope. Vessel density (average of three fields) was determined by IPLab software. The unpaired Student t-test was used for statistical analysis.

Method for Female SCID mice: Female SCID mice were injected with human pancreatic tumor cells subcutaneously. When tumors reached a volume of approximately 100 mm^3 endostatin or placebo treatment was initiated and continued until the end of the study. After three days, females were mated.
Human BxPC-3 cells were grown in cells culture as described above. After washing with sterile PBS, cells were trypsinized and briefly re-suspended in RPMI 1640 medium containing 10% fetal calf serum (FCS) and 1% glutamine penicillin streptomycin (GPS) solution. After centrifuging, the cell concentration was adjusted to 50×10^6 cells/ml in additive-free RPMI 1640 medium and kept on ice. Female SCID mice were shaved on the dorsal side and the naked skin was cleaned with ethanol prior to injection. A suspension of 5×10^6 cells/ml in 100 μl was then injected subcutaneously into the dorsa of these mice at about one centimetre left of the midline.
Mice were weighed and tumors were measured every 7 days in two diameters using a dial-caliper. Tumor volumes were calculated using the formula a^2×b×0.52, while a being the shorter and b being the longer diameter. When tumors had reached a volume of approximately 100 mm^2 mice were divided into four groups.
During the first experiment, one group received endostatin (20 mg/kg; n=8) or vehicle (n=8) via subcutaneous osmotic pumps (Durect Corp., Cupertino, Calif.). Pumps were inserted via a small incision and placed into a subcutaneous pocket on the right lateral aspect of the animals' dorsa. The pumps were changed every week for a total of four weeks.
The other group received daily subcutaneous injections of endostatin (100 mg/kg, n=5) or vehicle (n=5) for the same period.
During a second study we repeated the experiment with endostatin in subcutaneous pumps. The other group in this series received the murine N-terminal fragment of endostatin (mP-1) at a dose of 2.5 mg/kg twice daily or PBS (n=5 each).
Three days after initiation of treatment female mice were added to a cage containing a male SCID mouse in a 1:1 ratio. All males had been housed separately three days prior to encountering the females and female bedding had been added to the male cages to enhance the males' libido.
For the following seven days every female was checked for a vaginal mucous plug as a sign of mating. These exams were performed during the early morning hours to optimize the results. Once a mucous plug had been noticed, mating was considered ‘successful’, and the female was not further examined in order to minimize iatrogenic stress.
Over the course of pregnancy the following parameters were assessed: ‘Mating Time’ describing the time between male encounter and the occurrence of a mucous plug; ‘Pregnancy Rate’, measured by ultrasound 15 days after the mucous plug was observed. The number of viable fetus was counted during this procedure; ‘Length of Pregnancy’, as measured from the time of successful mating to delivery; ‘Number of Total and Viable Litter’, counted on the day of birth; ‘Weight of Individual Pup’, by weighing the entire litter on the day of birth and calculating the mean weight.

Take “HPTWPQKSVWHGSDPNGRRLTESY (listed as Homo sapiens) [hP6]”: the “inhibition of EC migration” value in data set [1] (200 and 100 ng/ml, VEGF 5 ng/ml) was “only inhibited at doses of 100 and 200 ng/ml”; in data set [1] (concentrations lower than 100 ng/ml), “no inhibition”.
Turning to ATAQDFQPVLHLVALNTPLSGGMRGIR [mP1-H1/3A], the “arrest of the estrus cycle” value in the data set on female C57BL/6 mice is “Neither mP-1, not the other two peptides, mP-6 and mP-1-H led to an arrest of the estrus cycle”.
The same measure, in the same setting: under HPAWPQKSVWHGSDPSGRRLMESY [mP6] stands “Neither mP-1, not the other two peptides, mP-6 and mP-1-H led to an arrest of the estrus cycle”.
Take HTHQDFQPVLHLVALNTPLSGGMRGIR [mP1]: in the data set with female C57BL/6 mice, the “arrest of the estrus cycle” value is “Neither mP-1, not the other two peptides, mP-6 and mP-1-H led to an arrest of the estrus cycle”. In the data set with Female SCID mice, the “effect on the offspring” value is “did not see any negative effect on the offspring”, the length of pregnancy is 20 days, the “litter size per delivery” value stood at 7.4±1.3 and the “mean weight of pups on the day of delivery” value is on record as 1.29 g. In addition, the “pregnancy rate with live births” value with Female SCID mice is recorded as “All mice receiving mP-1 became pregnant”. Also, the “mean number of Corpora lutea in ovaries” value with C57B1/6J mice is reported as “did not reduce the mean number of Corpora lutea”.
As for “GSEGPLKPGARIFSFDGKDVLRHPT (listed as Homo sapiens) [hP5]”, the “inhibited BxPC-3 (tumor inhibition)” value in data set [2] is 29%.
Regarding “GSQGQVQPGARIFSFDGRDVLRHPA (listed as Mus musculus) [mP5]”, the “inhibited LLC (tumor inhibition)” value in the data set with LLC is reported as “No or insignificant activity”.
Turning to “MRGIRGA DFQAFQQARA VGLSGTFR (MRGIRGADFQAFQQARAVGLSGTFR; listed as Mus musculus) [mP2]”, the LLC tumor formation result in the data set with LLC (higher concentration 14 mg/kg/d) was “could inhibit LLC tumor formation as well as mP1 at 2.8 mg/kg/d”. Also, the “inhibited LLC (tumor inhibition)” value in the data set on LLC is given as “No or insignificant activity”. Further, the “reduction of vessel density (%CD31/hpf)” value in data set [3] is on record as “no effect”.
In the case of “HTHQDFQPVLHLVALNTPLS (listed as Mus musculus) [mP1-20]”, the tumor volume result in the data set on LLC is recorded as “inhibit tumor volume”.
Consider “TFRAFLSSRLQDLYSIVRRADRAAV (listed as Homo sapiens) [hP3]”, for which the “inhibited BxPC-3 (tumor inhibition)” value in data set [2] was “failed to inhibit tumor growth”.
Take “HSHRDFQPVLHLVALNSPLSGGMRG (listed as Homo sapiens) [hP1]”: the “inhibition of EC migration” value in data set [1] (500 ng/ml, VEGF 5 ng/ml) was “no inhibition”; in data set [1] (100, 62.5, and 25 ng/ml, VEGF 5 ng/ml), “best inhibition”. In addition, the “inhibited BxPC-3 (tumor inhibition)” value in data set [2] stood at 39%.
Take “HTHQDFQPVLHLVAL (listed as Mus musculus) [mP1-15]”: the tumor volume result with LLC is reported as “inhibit tumor volume”.

The values above are taken from patent US7645735B2, “Anti-angiogenic peptides for treating or preventing endometriosis” (Children's Medical Center Corporation, priority 2003, dated 2010).
